According to US20120196935A1, “METHODS FOR DETECTING AUTODIGESTION” (THE REGENTS OF THE UNIVERSITY OF CALIFORNIA, priority 2009, published 2012):

System: experimental rats in hemorrhagic shock
Test: hemorrhagic shock in rats with blockage of digestive enzymes in the lumen of the intestine
Assay type: in vivo
Conditions: hemorrhagic shock (two hour reduction of blood pressure), inhibitor infused into the lumen of the intestine
Source text: Fetid organic material was released from animals subject to autodigestion by pancreatic enzymes, but not from those that were not subject to autodigestion. Non-surviving animals uniformly released fetid organic material, while survivors produced dramatically lower levels. For example, animals with blockage of digestive enzymes in the lumen of the intestine (by infusion of pancreatic serine protease inhibitors, such as cyclokapron) in hemorrhagic shock had lower levels of substances such as putrescine, cadaverine, methional, and transthyretin.

SMILES: NC[C@H]1CC[C@H](C(=O)O)CC1 [cyclokapron]
- levels of substances such as putrescine, cadaverine, methional, and transthyretin: lower levels
